One series has as its system Huvec. The series is described as follows: bFGF Huvec proliferation. It is filed as cell-based, human. The conditions noted are these: Homo sapiens, HUVEC.
The test system of series [1] is human umbilical vein endothelial cells (HUVEC). Put plainly: HUVEC+VEGF proliferation assay. It is filed as cell-based. The note with it: Homo sapiens, HUVEC; VEGF 6 ng/mL, 72 h, MTT. The gist of the method:
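Exponentially growing passage 3–4 HUVEC were starved 24 h in F12K + 1% FBS, given compound (0.1% final DMSO) 1 h before 6 ng/mL final VEGF, then cultured 72 h. Proliferation was read as MTT dye reduction (4 h exposure), absorbance at 595 nm.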

Series [2] addresses T1, unphosphorylated VEGF-R2Δ50 (FLVK) (Homo sapiens, UniProt P35968, DEL940-989/E990V).
T1 construct: VEGF-R2Δ50 contains residues 806–939 and 990–1171; made in house; host or cells: baculovirus/insect cell system
Put plainly: VEGF-R2 coupled spectrophotometric assay, unphosphorylated VEGF-R2Δ50 (FLVK). Format: biochemical. The note with it: unphosphorylated VEGF-R2Δ50; for inhibition at 0.05 µM: 50 nM compound, read-out: FLVK (% inh @ 50 nM). In a few lines: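 Baculovirus-expressed human VEGF-R2Δ50 (kinase insert partly deleted, E990V), unphosphorylated form; ADP production coupled via PK/LDH to NADH oxidation, read at 340 nm. 20 mM poly(E4Y1), 3 mM ATP, 60 mM MgCl2, 2 mM MnCl2, 200 mM HEPES pH 7.5; 5–40 nM enzyme. Ki from Morrison tight-binding fit.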

The target in another series is T2, KDR (VEGFR2) (Homo sapiens, UniProt P35968).
T2 construct: expressed in transfected cells; host or cells: porcine aorta endothelial (PAE)-KDR cells
T2 sequence (P35968 20-1356): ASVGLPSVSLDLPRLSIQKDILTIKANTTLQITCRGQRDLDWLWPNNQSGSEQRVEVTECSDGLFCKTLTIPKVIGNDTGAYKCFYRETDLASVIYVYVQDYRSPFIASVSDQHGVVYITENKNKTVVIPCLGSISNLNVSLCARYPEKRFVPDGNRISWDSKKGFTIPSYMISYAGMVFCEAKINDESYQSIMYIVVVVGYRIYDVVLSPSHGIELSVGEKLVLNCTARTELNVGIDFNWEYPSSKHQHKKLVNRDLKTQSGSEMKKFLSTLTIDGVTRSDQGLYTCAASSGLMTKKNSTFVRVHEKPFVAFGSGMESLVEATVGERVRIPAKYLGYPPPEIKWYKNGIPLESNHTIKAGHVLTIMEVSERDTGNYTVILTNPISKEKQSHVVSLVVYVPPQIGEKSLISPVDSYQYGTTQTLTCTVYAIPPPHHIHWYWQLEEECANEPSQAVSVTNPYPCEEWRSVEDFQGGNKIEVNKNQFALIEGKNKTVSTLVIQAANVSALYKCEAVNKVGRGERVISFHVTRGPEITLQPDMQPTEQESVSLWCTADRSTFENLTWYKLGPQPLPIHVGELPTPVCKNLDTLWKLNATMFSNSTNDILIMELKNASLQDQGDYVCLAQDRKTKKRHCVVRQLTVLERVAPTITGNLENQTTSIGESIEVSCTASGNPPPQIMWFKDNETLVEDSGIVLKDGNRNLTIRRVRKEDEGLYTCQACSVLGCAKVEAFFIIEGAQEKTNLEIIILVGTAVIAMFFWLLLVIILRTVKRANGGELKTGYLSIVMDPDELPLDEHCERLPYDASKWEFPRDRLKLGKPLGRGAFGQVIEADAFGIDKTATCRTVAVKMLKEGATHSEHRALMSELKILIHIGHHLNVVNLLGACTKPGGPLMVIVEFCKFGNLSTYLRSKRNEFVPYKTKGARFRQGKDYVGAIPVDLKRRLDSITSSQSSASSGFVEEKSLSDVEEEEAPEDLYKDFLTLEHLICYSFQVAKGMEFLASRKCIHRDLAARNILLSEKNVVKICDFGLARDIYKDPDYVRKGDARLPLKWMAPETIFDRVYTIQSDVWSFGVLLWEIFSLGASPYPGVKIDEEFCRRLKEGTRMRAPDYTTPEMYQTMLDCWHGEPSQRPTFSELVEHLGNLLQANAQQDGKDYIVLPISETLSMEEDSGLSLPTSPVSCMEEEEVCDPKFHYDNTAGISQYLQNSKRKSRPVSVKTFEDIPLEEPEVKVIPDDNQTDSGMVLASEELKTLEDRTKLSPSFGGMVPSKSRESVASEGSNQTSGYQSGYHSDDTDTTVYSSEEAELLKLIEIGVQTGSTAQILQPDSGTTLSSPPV
The series is described as follows: KDR (VEGFR2) phosphorylation in PAE-KDR cells assay. Format: cell-based. The note with it: PAE cells overexpressing human KDR, VEGF stimulated; read-out: PAE KDR autophos IC50 (nM) AVG. The method, then: KDR (VEGFR2) Phosphorylation in PAE-KDR Cells Assay
This assay determines the ability of a test compound to inhibit the autophosphorylation of KDR in porcine aorta endothelial (PAE)-KDR cells. PAE cells that overexpress human KDR were used in this assay. The cells were cultured in Ham's F12 media supplemented with 10% fetal bovine serum (FBS) and 400 ug/mL G418. Thirty thousands cells were seeded into each well of a 96-well plate in 75 μL of growth media and allowed to attach for 6 hours at 37° C. Cells were then exposed to the starvation media (Ham's F12 media supplemented with 0.1% FBS) for 16 hours. After the starvation period was over, 10 μL of test agent in 5% DMSO in starvation media were added to the test wells and 10 μL of the vehicle (5% DMSO in starvation media) were added into the control wells. The final DMSO concentration in each well was 0.5%. Plates were incubated at 37° C. for 1 hour and the cells were then stimulated with 500 ng/ml VEGF (commercially available from R & D System) in the presence of 2 mM Na3VO4 for 8 minutes. The cells were washed once with 1 mm Na3VO4 in HBSS and lysed by adding 50 μL per well of lysis buffer. One hundred μL of dilution buffer were then added to each well and the diluted cell lysate was transferred to a 96-well goat ant-rabbit coated plate (commercially available from Pierce) which was pre-coated with Rabbit anti Human Anti-flk-1 C-20 antibody (commercially available from Santa Cruz). The plates were incubated at room temperature for 2 hours and washed seven times with 1% Tween 20 in PBS. HRP-PY20 (commercially available from Santa Cruz) was diluted and added to the plate for a 30-minute incubation. Plates were then washed again and TMB peroxidase substrate (commercially available from Kirkegaard & Perry) was added for a 10-minute incubation. One hundred μL of 0.09 N H2SO4 was added to each well of the 96-well plates to stop the reaction. Phosphorylation status was assessed by spectrophotometer reading at 450 nm. IC50 values were calculated by curve fitting using a four-parameter analysis.

The next series has as its target T3, PDGFRβ (Homo sapiens, UniProt P09619).
T3 construct: expressed in transfected cells; host or cells: porcine aorta endothelial (PAE)-PDGFRβ cells
Put plainly: PAE-PDGFRβ phosphorylation in PAE-PDGFRB cells assay. It is filed as cell-based. The note with it: PAE cells overexpressing human PDGFRβ, PDGF-BB stimulated; read-out: PAE PDGFR autophos IC50 (nM) AVG. The gist of the method: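 PAE cells overexpressing human PDGFRβ, serum-starved 16 h (0.1% FBS), were given compound for 1 h at 37 °C (0.5% DMSO) and then stimulated with 1 μg/mL PDGF-BB plus 2 mM Na3VO4 for 8 min. Receptor autophosphorylation was read by capture ELISA (HRP-PY20, TMB, 450 nm); IC50 from 4-parameter fit.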

From patent US7045528B2, “Benzofused heterozryl amide derivatives of thienopyridines useful as therapeutic agents, pharmaceutical compositions including the same, and methods for their use” (Agouron Pharmaceuticals, Inc., priority 2002, dated 2006) come the findings set out here.

T1 sequence (P35968 with tags, fused parts or gaps DEL940-989/E990V limits assumed): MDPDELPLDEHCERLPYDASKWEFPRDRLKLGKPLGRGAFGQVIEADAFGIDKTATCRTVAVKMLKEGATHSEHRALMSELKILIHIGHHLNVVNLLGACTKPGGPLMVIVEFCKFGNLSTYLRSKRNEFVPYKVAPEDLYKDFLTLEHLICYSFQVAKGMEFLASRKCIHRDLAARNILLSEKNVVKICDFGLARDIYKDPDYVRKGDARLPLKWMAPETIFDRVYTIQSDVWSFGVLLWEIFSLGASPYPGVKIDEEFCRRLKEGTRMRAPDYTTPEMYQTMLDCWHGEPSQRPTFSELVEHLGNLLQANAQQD
T3 sequence (P09619 33-1106): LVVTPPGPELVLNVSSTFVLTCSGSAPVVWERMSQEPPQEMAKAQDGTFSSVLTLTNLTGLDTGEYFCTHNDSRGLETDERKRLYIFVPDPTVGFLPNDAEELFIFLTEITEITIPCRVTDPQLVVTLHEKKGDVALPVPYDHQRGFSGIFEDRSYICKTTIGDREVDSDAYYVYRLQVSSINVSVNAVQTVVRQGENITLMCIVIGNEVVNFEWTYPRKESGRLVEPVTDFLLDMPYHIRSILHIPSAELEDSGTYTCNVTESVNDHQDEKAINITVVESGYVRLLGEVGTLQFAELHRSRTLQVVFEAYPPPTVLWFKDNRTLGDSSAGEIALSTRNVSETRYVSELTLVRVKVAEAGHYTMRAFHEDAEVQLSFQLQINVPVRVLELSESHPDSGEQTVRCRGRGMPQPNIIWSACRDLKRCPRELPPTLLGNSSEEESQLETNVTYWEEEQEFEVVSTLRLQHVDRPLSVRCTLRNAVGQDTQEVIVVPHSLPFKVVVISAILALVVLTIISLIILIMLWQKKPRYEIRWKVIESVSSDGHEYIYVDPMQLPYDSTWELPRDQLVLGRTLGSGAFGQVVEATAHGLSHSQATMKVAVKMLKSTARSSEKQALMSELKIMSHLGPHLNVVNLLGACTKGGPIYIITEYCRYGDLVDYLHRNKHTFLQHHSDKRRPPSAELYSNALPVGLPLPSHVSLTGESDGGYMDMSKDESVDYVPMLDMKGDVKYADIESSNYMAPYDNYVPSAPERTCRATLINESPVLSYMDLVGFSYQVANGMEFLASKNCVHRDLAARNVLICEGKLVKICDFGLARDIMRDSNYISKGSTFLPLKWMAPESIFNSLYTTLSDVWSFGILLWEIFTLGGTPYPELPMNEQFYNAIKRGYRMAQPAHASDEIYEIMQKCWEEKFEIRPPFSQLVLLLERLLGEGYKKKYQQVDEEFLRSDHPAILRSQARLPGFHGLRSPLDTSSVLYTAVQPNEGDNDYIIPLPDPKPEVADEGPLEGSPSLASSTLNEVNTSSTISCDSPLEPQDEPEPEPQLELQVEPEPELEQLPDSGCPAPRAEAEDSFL

On to `CNC(=O)c1c(C)sc2cc(Oc3ccnc4cc(C(=O)N5C[C@@H](O)[C@@H](O)C5)sc34)ccc12` [Example 7, 6-(2-[meso-3,4-dihydroxypyrrolidine-1-carbonyl]thieno[3,2-b]pyridin-7-yloxy)-2-methylbenzo[b]thiophene-3-carboxylic acid methylamide], for which the IC50 in the series on Huvec amounted to 2470 nM; in series [1], 1.21 nM; at KDR (VEGFR2) it was 1.95 nM. The inhibition at 0.05 µM in series [2] was determined as 95%. This molecule also showed a Ki in series [2] of 1.04 nM.
Molecule `CNC(=O)c1c(C)sc2cc(Oc3ccnc4cc(C(=O)N5CC(O)C5)sc34)ccc12` [Example 9, 6-(2-[3-Hydroxyazetidine-1-carbonyl]thieno[3,2-b]pyridin-7-yloxy)-2-methylbenzo[b]thiophene-3-carboxylic acid methylamide] came in with a melting point of 237 to 239 °C. The molecule further registered an IC50 in the series on Huvec of 135 nM. Moreover, on PDGFRβ, the IC50 was 313 nM. The IC50 in series [1] is 13 nM. In addition, in series [2], the inhibition at 0.05 µM worked out at 83% and the inhibition constant (Ki) was found to be 1.57 nM.
Regarding `CNC(=O)c1c(C)sc2cc(Oc3ccnc4cc(-c5ccnn5C)sc34)ccc12` [Example 10, 2-Methyl-6-(2-[2-methyl-2H-pyrazol-3-yl]thieno[3,2-b]pyridin-7-yloxy)benzo[b]thiophene-3-carboxylic acid methylamide], the melting point was in the range of 210 to 212 °C. The concentration for half-maximal inhibition (IC50) with Huvec was 99 nM. Further, the IC50 at PDGFRβ stood at 451 nM. In series [1], the IC50 amounted to 10 nM. Also, in series [2], the inhibition at 0.05 µM was 74% and affinity was put at a Ki of 2.31 nM.
On to `Cc1c(C(=O)NCC2CC2)c2ccc(Oc3ccnc4cc(-c5nc(C(C)(C)O)cs5)sc34)cc2n1C` [Example 57, 6-{2-[4(1-Hydroxy-1-methyl-ethyl)-thiazol-2-yl]-thieno[3,2-b]pyridin-7-yloxy)-1,2-dimethyl-1H-indole-3-carboxylic acid cyclopropylmethyl-amide], for which, in series [2], the inhibition at 0.05 µM was found to be 63% and affinity was put at a Ki of 9.8 nM. On KDR (VEGFR2), the IC50 was 87 nM.

In general, IC50 refers to the concentration that gives 50% inhibition. One may read the Ki as a measure of affinity in units of concentration, obtained from inhibition or displacement. Lower therefore signals tighter binding. As a reminder, the melting point is the temperature of the solid-liquid transition.
